According to patent publication US7595313B2, “Nitric oxide donating diuretic compounds, compositions and methods of use” (NicOx, S.A., priority 2005, dated 2009):
Counter-ions that a name gives are not always drawn.

test system: not given; experiment: not given; conditions: not given

With `CN(CC1Nc2cc(Cl)c(S(N)(=O)=O)cc2S(=O)(=O)N1)C(=O)CN(CCO[N+](=O)[O-])CCO[N+](=O)[O-]` (stereo not drawn) the melting point was 183 to 185 °C (dec.).

Compared with `Cc1c(C2Nc3cc(C(F)(F)F)c(S(N)(=O)=O)cc3S(=O)(=O)N2)no[n+]1[O-]` (stereo not drawn) (as salt: HCl) [Example 10, 2H-1,2,4-Benzothiadiazine-7-sulfonamide, 3,4-dihydro-3-(4-methyl-5-oxido-1,2,5-oxadiazol-3-yl)-6-(trifluoromethyl)-, 1,1-dioxide], `NS(=O)(=O)c1cc2c(cc1Cl)N=C(NC(=O)CCCCCO[N+](=O)[O-])NS2(=O)=O` (as salt: hydrochloride) [Example 5b, Hexanamide, N-[7-(aminosulfonyl)-6-chloro-1,1-dioxido-2H-1,2,4-benzothiadiazin-3-yl]-6-(nitrooxy)-] is higher in melting point: 160 °C for the first, 177 to 179 °C for the second.

Work on `NS(=O)(=O)c1cc2c(cc1Cl)NCN(CCCCO[N+](=O)[O-])S2(=O)=O` (as salt: potassium) [Example 40b, 2H-1,2,4-Benzothiadiazine-7-sulfonamide, 6-chloro-3,4-dihydro-2-[4-(nitrooxy)butyl]-, 1,1-dioxide] yielded a melting point of 75 to 77 °C.

test system: Male Wistar rats; experiment: Determination of the diuresis (urine volume over 6 hours after oral dosing); type: in vivo, rat; conditions: p.o. 3 mg/kg in 0.5% Methocel, male Wistar rats, 6 hours, mean ± SEM, n=6 or 7
Protocol: Procedures were approved by the Institutional Animal Care and Use Committee of NitroMed, Inc. Male Wistar rats (180-200 g) were purchased from Charles River Laboratories (Kingston, N.Y. or Raleigh, N.C.) and allowed to acclimate in the facility for a period of at least 72 h. Rats were randomly housed 2-3 per cage in a light-controlled room with a 12 hour light/dark cycle and allowed ad libitum access to food and water.
Prior to the experiment, each rat was placed in a metabolic cage and allowed to acclimate for a period of 24-48 hours with food and water ad libitum. During this acclimation period, rats received mash food instead of pellet food to prevent contamination of the urine samples. All rats were fasted for 18 hours prior to experimentation. In addition, water was removed 90 minutes prior to oral dosing with test compound or vehicle.
The test compounds were prepared immediately prior to dosing in 0.5% Methocel (F4M Premium Hydroxypropyl Methylcellulose, lot # PF12012N12; Dow Chemical Company, USA) and homogenized with a glass/Teflon pestle motorized homogenizer. Gently vortexed test compounds were administered intragastrically (p.o.; 30 mg/kg or 3 mg/kg) at a dose volume of 3 ml per rat using an 18 gauge gavage needle. Urine volume (ml) was monitored and urine was collected for subsequent electrolyte analysis over a 6 hours period. […] Data are expressed as mean ±SEM; n=6 or 7.

Going from `NC1=Nc2cc(Cl)c(S(N)(=O)=O)cc2S(=O)(=O)N1` [Example 4b, 2H-1,2,4-Benzothiadiazine-7-sulfonamide, 3-amino-6-chloro-, 1,1-dioxide] to `NS(=O)(=O)c1cc2c(cc1Cl)NC(CBr)NS2(=O)=O` (stereo not drawn) [Example 36a, 2H-1,2,4-Benzothiadiazine-7-sulfonamide, 3-(bromomethyl)-6-chloro-3,4-dihydro-, 1,1-dioxide], the “Urine collected in 6 hours (mL) (3 mg/kg)” value (“Urine collected … (3 mg/kg)” below) rises from 4.0 ± 0.5 mL to 5.5 ± 0.6 mL.

First: NS(=O)(=O)c1cc2c(cc1Cl)NCN(CC(=O)O)S2(=O)=O [Example 31a, 2H-1,2,4-Benzothiadiazine-2-acetic acid, 7-(aminosulfonyl)-6-chloro-3,4-dihydro-, 1,1-dioxide]
Second: NS(=O)(=O)c1cc2c(cc1Cl)NCN(CC(O)CO)S2(=O)=O (stereo not drawn) [Example 75b, 2H-1,2,4-Benzothiadiazine-7-sulfonamide, 6-chloro-2-(2,3-dihydroxypropyl)-3,4-dihydro-, 1,1-dioxide]
The “Urine collected … (3 mg/kg)” value of the first is lower: 2.5 ± 0.3 mL for the first, 4.6 ± 0.6 mL for the second.

`NS(=O)(=O)c1cc2c(cc1Cl)NC(CN1CCC(CCO[N+](=O)[O-])CC1)NS2(=O)=O.O=C(O)CC(O)(CC(=O)O)C(=O)O` (stereo not drawn) [Example 36c, 2H-1,2,4-Benzothiadiazine-7-sulfonamide, 6-chloro-3,4-dihydro-3-[[4-[2-(nitrooxy)ethyl]-1-piperidinyl]methyl]-, 1,1-dioxide, 2-hydroxy-1,2,3-propanetricarboxylate (1:1) (salt)] and `NS(=O)(=O)c1cc2c(cc1Cl)NCN(CCOC(=O)CCCCO[N+](=O)[O-])S2(=O)=O` [Example 44, Pentanoic acid, 5-(nitrooxy)-, 2-[7-(aminosulfonyl)-6-chloro-3,4-dihydro-1,1-dioxido-2H-1,2,4-benzothiadiazin-2-yl]ethyl ester] are within error of each other in “Urine collected … (3 mg/kg)” value: 3.0 ± 0.4 mL for the first, 2.5 ± 0.3 mL for the second.

Going from `NS(=O)(=O)c1cc2c(cc1Cl)NCN(CCCCO[N+](=O)[O-])S2(=O)=O` [Example 40b, 2H-1,2,4-Benzothiadiazine-7-sulfonamide, 6-chloro-3,4-dihydro-2-[4-(nitrooxy)butyl]-, 1,1-dioxide] to `NS(=O)(=O)c1cc2c(cc1Cl)NCN(CCCCOc1cc(CO)cc(CO)c1)S2(=O)=O` [Example 69a, 2H-1,2,4-Benzothiadiazine-7-sulfonamide, 2-[4-[3,5-bis(hydroxymethyl)phenoxy]butyl]-6-chloro-3,4-dihydro-, 1,1-dioxide], the “Urine collected … (3 mg/kg)” value falls from 6.0 ± 0.7 mL to 2.7 ± 0.6 mL.

`NS(=O)(=O)c1cc2c(cc1Cl)NCN(CCCOc1cc(CO)cc(CO)c1)S2(=O)=O` [Example 70b, 2H-1,2,4-Benzothiadiazine-7-sulfonamide, 2-[3-[3,5-bis(hydroxymethyl)phenoxy]propyl]-6-chloro-3,4-dihydro-, 1,1-dioxide] and `NS(=O)(=O)c1cc2c(cc1Cl)NCN(CCOc1cc(CO)cc(CO)c1)S2(=O)=O` [Example 71b, 2H-1,2,4-Benzothiadiazine-7-sulfonamide, 2-[2-[3,5-bis(hydroxymethyl)phenoxy]ethyl]-6-chloro-3,4-dihydro-, 1,1-dioxide] are within error of each other in “Urine collected … (3 mg/kg)” value: 2.8 ± 0.7 mL for the first, 2.1 ± 0.5 mL for the second.

same assay, conditions: p.o. 30 mg/kg in 0.5% Methocel, male Wistar rats, 6 hours, mean ± SEM, n=6 or 7

`NS(=O)(=O)c1cc2c(cc1Cl)N[C@@H](CCCCO[N+](=O)[O-])NS2(=O)=O` (single isomer, unassigned) [17c (enantiomer 1)] and `NS(=O)(=O)c1cc2c(cc1Cl)N[C@H](CCCCO[N+](=O)[O-])NS2(=O)=O` (single isomer, unassigned) [17c (enantiomer 2)] are within error of each other in “Urine collected in 6 hours (mL) (30 mg/kg)” value (“Urine collected … (30 mg/kg)” below): 7.0 ± 0.6 mL for the first, 7.8 ± 0.5 mL for the second.

`NS(=O)(=O)c1cc2c(cc1Cl)N=C(NC(=O)CCCCCO[N+](=O)[O-])NS2(=O)=O` [Example 5b, Hexanamide, N-[7-(aminosulfonyl)-6-chloro-1,1-dioxido-2H-1,2,4-benzothiadiazin-3-yl]-6-(nitrooxy)-] and `NS(=O)(=O)c1cc2c(cc1C(F)(F)F)NC1(CCN(C(=O)c3cccc(CO[N+](=O)[O-])c3)CC1)NS2(=O)=O` [Example 15b, Spiro[2H-1,2,4-benzothiadiazine-3(4H), 4′-piperidine]-7-sulfonamide, 1′-[3-[(nitrooxy)methyl]benzoyl]-6-(trifluoromethyl)-, 1,1-dioxide] are the same in “Urine collected … (30 mg/kg)” value: 4.5 ± 0.5 mL for the first, 4.5 ± 0.2 mL for the second.

Compared with `Cc1c(C2Nc3cc(C(F)(F)F)c(S(N)(=O)=O)cc3S(=O)(=O)N2)no[n+]1[O-]` (stereo not drawn) [Example 10, 2H-1,2,4-Benzothiadiazine-7-sulfonamide, 3,4-dihydro-3-(4-methyl-5-oxido-1,2,5-oxadiazol-3-yl)-6-(trifluoromethyl)-, 1,1-dioxide], `CC(C)(C)OC(=O)N1CCC2(CC1)Nc1cc(C(F)(F)F)c(S(N)(=O)=O)cc1S(=O)(=O)N2` [Example 12a, Spiro[2H-1,2,4-benzothiadiazine-3(4H), 4′-piperidine]-1′-carboxylic acid, 7-(aminosulfonyl)-6-(trifluoromethyl)-, 1,1-dimethylethyl ester, 1,1-dioxide] is lower in “Urine collected … (30 mg/kg)” value: 6.9 ± 0.9 mL for the first, 4.0 ± 0.4 mL for the second.

same assay, conditions: rat, in vivo, po

`NS(=O)(=O)c1cc2c(cc1Cl)NCN(C[C@H](CO[N+](=O)[O-])O[N+](=O)[O-])S2(=O)=O` (single isomer, unassigned) [75d (enantiomer 1)] and `NS(=O)(=O)c1cc2c(cc1Cl)NCN(C[C@@H](CO[N+](=O)[O-])O[N+](=O)[O-])S2(=O)=O` (single isomer, unassigned) [75d (enantiomer 2)] are within error of each other in “Urine collected … (3 mg/kg)” value: 5.3 ± 0.3 mL for the first, 5.5 ± 0.4 mL for the second.

Compared with `NS(=O)(=O)c1cc2c(cc1Cl)NCN(CC(=O)OC[C@H](CO[N+](=O)[O-])O[N+](=O)[O-])S2(=O)=O` [Example 31b, 2H-1,2,4-Benzothiadiazine-2-acetic acid, 7-(aminosulfonyl)-6-chloro-3,4-dihydro-, (2R)-2,3-bis(nitrooxy)propyl ester, 1,1-dioxide], `NS(=O)(=O)c1cc2c(cc1Cl)NCN(CC(CO[N+](=O)[O-])O[N+](=O)[O-])S2(=O)=O` (stereo not drawn) [Example 75c, 2H-1,2,4-Benzothiadiazine-7-sulfonamide, 2-[2,3-bis(nitrooxy)propyl]-6-chloro-3,4-dihydro-, 1,1-dioxide] is higher in “Urine collected … (3 mg/kg)” value: 2.0 ± 0.3 mL for the first, 5.4 ± 0.6 mL for the second.

First: NS(=O)(=O)c1cc2c(cc1Cl)NCN(CC(=O)N(CCO[N+](=O)[O-])CCO[N+](=O)[O-])S2(=O)=O [Example 39, 2H-1,2,4-Benzothiadiazine-2-acetamide, 7-(aminosulfonyl)-6-chloro-3,4-dihydro-N,N-bis[2-(nitrooxy)ethyl]-, 1,1-dioxide]
Second: NS(=O)(=O)c1cc2c(cc1Cl)NCN(CCOC(=O)CCC(CO[N+](=O)[O-])O[N+](=O)[O-])S2(=O)=O (stereo not drawn) [Example 42, Pentanoic acid, 4,5-bis(nitrooxy)-, 2-[7-(aminosulfonyl)-6-chloro-3,4-dihydro-1,1-dioxido-2H-1,2,4-benzothiadiazin-2-yl]ethyl ester]
The “Urine collected … (3 mg/kg)” value of the first is lower: 2.5 ± 0.5 mL for the first, 6.2 ± 0.3 mL for the second.

With `NS(=O)(=O)c1cc2c(cc1Cl)NC1(CCN(C(=O)CCC(CO[N+](=O)[O-])O[N+](=O)[O-])CC1)NS2(=O)=O` (stereo not drawn) [Example 22b, Spiro[2H-1,2,4-benzothiadiazine-3(4H), 4′-piperidine]-7-sulfonamide, 1′-[4,5-bis(nitrooxy)-1-oxopentyl]-6-chloro-, 1,1-dioxide] the “Urine collected … (30 mg/kg)” value was 2.5 ± 0.2 mL.
